Test results reported in patent US9476099B2 (TRUSTEES OF DARTMOUTH COLLEGE, priority 2012, dated 2016).
Several values for one entry are separate records, joined by “and”; a condition that tells them apart may be missing. Equal values may be shown once.

Test system: NT2/D1-R1 control and DNMT3B knockdown cells
Test: Genome-wide expression analysis with PAM clusters, control and DNMT3B knockdown cells (Tables 8-14)
Conditions: sh-3B + aza
[1] = NT2/D1-R1 DNMT3B knockdown, decitabine 10 nM 3 days

SMILES: Nc1ncn([C@H]2C[C@H](O)[C@@H](CO)O2)c(=O)n1 [aza]
- LOC644422 XR_019449 expression Mean (10 nM decitabine, 3 days): 223.185
- LOC647954 XR_018676 expression Mean (10 nM decitabine, 3 days): 1052.7
- LOC728715 XM_0011282 expression Mean (10 nM decitabine, 3 days): 877.255
- M6PRBP1 NM_005817 expression Mean (10 nM decitabine, 3 days): 907.761
- MBNL3 NM_133486 expression Mean (10 nM decitabine, 3 days): 272.09
- MCM4 NM_005914 expression Mean (10 nM decitabine, 3 days): 2040.37
- MEPCE NM_019606 expression Mean (10 nM decitabine, 3 days): 354.1
- METTL1 NM_005371 expression Mean (10 nM decitabine, 3 days): 266.779
- MORF4L2 NM_012286 expression Mean (10 nM decitabine, 3 days): 2564.56
- MRTO4 NM_016183 expression Mean (10 nM decitabine, 3 days): 654.553
- MT1E NM_175617 expression Mean (10 nM decitabine, 3 days): 1985.42
- MTA2 NM_004739 expression Mean (10 nM decitabine, 3 days): 325.004
- MYOF NM_013451 expression Mean (10 nM decitabine, 3 days): 177.015
- MYOF NM_133337 expression Mean (10 nM decitabine, 3 days): 293.772
- NACC2 NM_144653 expression Mean (10 nM decitabine, 3 days): 245.995
- NAT5 NM_181528 expression Mean (10 nM decitabine, 3 days): 1059.57
- NBPF10 NM_0010376 expression Mean (10 nM decitabine, 3 days): 370.658
- NBPF10 NM_0010397 expression Mean (10 nM decitabine, 3 days): 345.645
- NEFH NM_021076 expression Mean (10 nM decitabine, 3 days): 407.674
- NFE2 NM_006163 expression Mean (10 nM decitabine, 3 days): 245.362
- NM_002467 expression Mean (10 nM decitabine, 3 days): 595.692
- NM_0010397 expression Mean (10 nM decitabine, 3 days): 405.052
- NM_138781 expression Mean (10 nM decitabine, 3 days): 305.526
- NODAL NM_018055 expression Mean (10 nM decitabine, 3 days): 1549.19
- NOP2 NM_0010337 expression Mean (10 nM decitabine, 3 days): 5354.42
- NOP56 NM_006392 expression Mean (10 nM decitabine, 3 days): 2368.5
- NP NM_000270 expression Mean (10 nM decitabine, 3 days): 340.821
- NR_002773 expression Mean (10 nM decitabine, 3 days): 394.199
- NR_003287 expression Mean (10 nM decitabine, 3 days): 182.319
- NTF3 NM_002527 expression Mean (10 nM decitabine, 3 days): 184.819
- NTS NM_006183 expression Mean (10 nM decitabine, 3 days): 457.501
- NUAK2 NM_030952 expression Mean (10 nM decitabine, 3 days): 225.181 and 195.684
- OAT NM_000274 expression Mean (10 nM decitabine, 3 days): 2711.86
- ODC1 NM_002539 expression Mean (10 nM decitabine, 3 days): 2404.47
- PAK1IP1 NM_017906 expression Mean (10 nM decitabine, 3 days): 603.531
- PEA15 NM_003768 expression Mean (10 nM decitabine, 3 days): 969.289
- PEG3 NM_006210 expression Mean (10 nM decitabine, 3 days): 256.384
- PITX1 NM_002653 expression Mean (10 nM decitabine, 3 days): 267.398
- PLAU NM_002658 expression Mean (10 nM decitabine, 3 days): 325.966
- PLEKHF1 NM_024310 expression Mean (10 nM decitabine, 3 days): 367.904
- POLR1C NM_203290 expression Mean (10 nM decitabine, 3 days): 414.276 and 557.268
- PPA2 NM_006903 expression Mean (10 nM decitabine, 3 days): 606.161
- PPAN NM_002566 expression Mean (10 nM decitabine, 3 days): 287.832
- RBM22 NM_018047 expression Mean (10 nM decitabine, 3 days): 700.828
- RNMTL1 NM_018146 expression Mean (10 nM decitabine, 3 days): 432.796
- RPL6 NM_0010246 expression Mean (10 nM decitabine, 3 days): 1608.44
- RRM2 NM_001034 expression Mean (10 nM decitabine, 3 days): 799.058
- RSL1D1 NM_015659 expression Mean (10 nM decitabine, 3 days): 1458.69
- RUNX3 NM_004350 expression Mean (10 nM decitabine, 3 days): 191.132
- SERPINE1 NM_000602 expression Mean (10 nM decitabine, 3 days): 246.121
- SERTAD1 NM_013376 expression Mean (10 nM decitabine, 3 days): 291.604
- SFXN4 NM_213649 expression Mean (10 nM decitabine, 3 days): 481.671
- SIDT2 NM_0010404 expression Mean (10 nM decitabine, 3 days): 326.437
- SLC20A1 NM_005415 expression Mean (10 nM decitabine, 3 days): 1225.68
- SNAPC4 NM_003086 expression Mean (10 nM decitabine, 3 days): 599.752
- SOCS2 NM_003877 expression Mean (10 nM decitabine, 3 days): 182.936 and 244.438
- SOX15 NM_006942 expression Mean (10 nM decitabine, 3 days): 1693.21
- SPANXD NM_145665 expression Mean (10 nM decitabine, 3 days): 121.39
- SPRYD5 NM_032681 expression Mean (10 nM decitabine, 3 days): 293.721
- SQSTM1 NM_003900 expression Mean (10 nM decitabine, 3 days): 885.073
- SRRT NM_015908 expression Mean (10 nM decitabine, 3 days): 2745.27
- SUSD2 NM_019601 expression Mean (10 nM decitabine, 3 days): 1694.29
- TAGLN NM_003186 expression Mean (10 nM decitabine, 3 days): 489.068
- TNFRSF12A NM_016639 expression Mean (10 nM decitabine, 3 days): 296.715
- TNFRSF13B NM_012452 expression Mean (10 nM decitabine, 3 days): 214.796
- TNPO1 NM_153188 expression Mean (10 nM decitabine, 3 days): 240.816
- TPRG1L NM_182752 expression Mean (10 nM decitabine, 3 days): 762.223
- TRIM8 NM_030912 expression Mean (10 nM decitabine, 3 days): 529.909
- TTC4 NM_004623 expression Mean (10 nM decitabine, 3 days): 851.239
- UTP14A NM_006649 expression Mean (10 nM decitabine, 3 days): 736.541
- WBSCR22 NM_017528 expression Mean (10 nM decitabine, 3 days): 958.822
- XM_0011261 expression Mean (10 nM decitabine, 3 days): 824.879
- XM_0011281 expression Mean (10 nM decitabine, 3 days): 1290.15
- XR_015970 expression Mean (10 nM decitabine, 3 days): 527.915
- XR_016703 expression Mean (10 nM decitabine, 3 days): 4025.84
- XR_017241 expression Mean (10 nM decitabine, 3 days): 5144.11
- XR_017543 expression Mean (10 nM decitabine, 3 days): 410.447
- ZDHHC6 NM_022494 expression Mean (10 nM decitabine, 3 days): 344.248
- ZHX2 NM_014943 expression Mean (10 nM decitabine, 3 days): 196.281
- A4GALT (NM_017436) gene expression, Mean [1]: 279.705
- ABR (NM_001092) gene expression, Mean [1]: 376.941
- ACACA (NM_198836) gene expression, Mean [1]: 630.777
